From US20240409585A1, “MACROCYCLIC IMMUNOMODULATORS” (priority 2021, published 2024)
Numbered stars: 1 amine (or outer) side, 2 acyl side, 3 side chain; on linkers, the order of the positions; unused ones are H or OH. Bridge positions count the residues as written; N and C are the ends. Square brackets hold non-standard residues; d marks the D form. Peptide text beside a SMILES is read from it. * marks the point of attachment. ξ: configuration not given here. Phe(4-CONH2) = NC(=O)c1ccc(C[C@H](N)C(=O)O)cc1; Phe(4-COOH) = N[C@@H](Cc1ccc(C(=O)O)cc1)C(=O)O; X27 = O=C([C@H](Cc1ccc2ncccc2c1)N[*:1])[*:2]; Bip = N[C@@H](Cc1ccc(-c2ccccc2)cc1)C(=O)O; Phe(3-OMe) = COc1cccc(C[C@H](N)C(=O)O)c1; Phe(3-Me) = Cc1cccc(C[C@H](N)C(=O)O)c1; d(aThr) = C[C@@H](O)[C@@H](N)C(=O)O; Val(3-OH) = CC(C)(O)[C@H](N)C(=O)O; 4Pal = N[C@@H](Cc1ccncc1)C(=O)O; Cha = N[C@@H](CC1CCCCC1)C(=O)O; Cit = NC(=O)NCCC[C@H](N)C(=O)O; Ile(3ξ) = CCC(C)[C@H](N)C(=O)O; Thr(3ξ) = CC(O)[C@H](N)C(=O)O; Carboxymethyl = O=C(O)C*; NMeA = CN[C@@H](C)C(=O)O; Orn = NCCC[C@H](N)C(=O)O; Dab = NCC[C@H](N)C(=O)O; Dap = NC[C@H](N)C(=O)O

Target: T1, PE-labeled human PD-L1-Ig binding to Jurkat cell line over-expressing human PD-1 (Jurkat-PD-1) (Homo sapiens, UniProt Q15116)
T1 construct: expressed in transfected cells; host or cells: Jurkat
T1 sequence (Q15116 25-288): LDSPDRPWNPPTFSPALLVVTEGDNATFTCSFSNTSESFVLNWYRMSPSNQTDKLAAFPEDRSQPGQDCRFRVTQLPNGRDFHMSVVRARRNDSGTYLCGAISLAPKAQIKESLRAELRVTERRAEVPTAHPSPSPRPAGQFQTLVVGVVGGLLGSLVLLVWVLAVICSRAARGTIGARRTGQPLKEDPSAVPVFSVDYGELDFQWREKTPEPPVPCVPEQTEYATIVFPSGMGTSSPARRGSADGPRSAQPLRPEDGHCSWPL
Assay: Jurkat-PD-1 Cell Binding High-Content Screening Assay (CBA): Method 1
Details: Jurkat-hPD-1 cells, PE-labeled PD-L1-Ig 20 nM final; read-out: Jurkat HPDL1 PD1 IC50 (uM) (Method 1)

Row | Compound | IC50 [µM]
1 | CC(C)C[C@@H]1NC(=O)[C@H](CCCNC(=N)N)NC(=O)[C@@H](C)NC(=O)[C@H](C)N(C)C(=O)[C@H](CCCNC(=N)N)NC(=O)[C@H](Cc2ccc(-c3ccccc3)cc2)NC(=O)[C@H](C(C)C)NC(=O)[C@H](Cc2c[nH]c3ccccc23)NC(=O)[C@H](CC(=O)O)NC(=O)[C@H](Cc2ccc(O)cc2)NC(=O)[C@H](Cc2ccccc2)NC(=O)CSC[C@@H](C(=O)NCC(N)=O)NC(=O)[C@H](CO)NC(=O)[C@H](C(C)C)NC1=O [Compound 1016] ({CH2CO}-FYDWV[Bip]R[NMeA][dA]RLVSCG-NH2; thioether N-14) | 0.13
2 | CC(C)C[C@@H]1NC(=O)[C@H](CCCN)NC(=O)[C@@H](CC(C)C)NC(=O)[C@H](C)N(C)C(=O)[C@H](CCCNC(=N)N)NC(=O)[C@H](Cc2ccc(-c3ccccc3)cc2)NC(=O)[C@H](C(C)C)NC(=O)[C@H](Cc2c[nH]c3ccccc23)NC(=O)[C@H](CC(=O)O)NC(=O)[C@H](Cc2ccc(OCC(=O)O)cc2)NC(=O)[C@H](Cc2ccccc2)NC(=O)CSC[C@@H](C(=O)N[C@@H](C)C(N)=O)NC(=O)[C@H]([C@@H](C)O)NC(=O)[C@H](C(C)C)NC1=O [Compound 1140] ({CH2CO}-FY(Carboxymethyl)DWV[Bip]R[NMeA][dL][Orn]LVTCA-NH2; thioether N-14) | 0.03
3 | CC(C)C[C@@H]1NC(=O)[C@H](CCCNC(=N)N)NC(=O)[C@@H](CC(C)C)NC(=O)[C@H](C)N(C)C(=O)[C@H](CCCNC(=N)N)NC(=O)[C@H](Cc2ccc(-c3ccccc3)cc2)NC(=O)[C@H](C(C)C)NC(=O)[C@H](Cc2c[nH]c3ccccc23)NC(=O)[C@H](CC(=O)O)NC(=O)[C@H](Cc2ccc(OCC(=O)O)cc2)NC(=O)[C@H](Cc2ccccc2)NC(=O)CSC[C@@H](C(=O)N[C@@H](C)C(N)=O)NC(=O)[C@H]([C@@H](C)O)NC(=O)[C@H](C(C)C)NC1=O [Compound 1094] ({CH2CO}-FY(Carboxymethyl)DWV[Bip]R[NMeA][dL]RLVTCA-NH2; thioether N-14) | 0.77
4 | CC(C)C[C@@H]1NC(=O)[C@H](Cc2c[nH]c3ccccc23)NC(=O)[C@H](CC(=O)O)NC(=O)[C@H](Cc2ccc(O)cc2)NC(=O)[C@H](Cc2ccccc2)NC(=O)CSC[C@@H](C(=O)NCC(N)=O)NC(=O)[C@H](CO)NC(=O)[C@H](C(C)C)NC(=O)[C@H](CC(C)C)NC(=O)[C@H](CC(N)=O)NC(=O)[C@@H]([C@@H](C)O)NC(=O)[C@H](C)N(C)C(=O)[C@H](C(C)C)NC(=O)[C@H](Cc2ccc(-c3ccccc3)cc2)NC1=O [Compound 1752] ({CH2CO}-FYDWL[Bip]V[NMeA][d(aThr)]NLVSCG-NH2; thioether N-14) | 0.03
5 | COc1cccc(C[C@@H]2NC(=O)[C@H](CN)NC(=O)CSC[C@@H](C(=O)N[C@@H](C)C(N)=O)NC(=O)[C@H]([C@@H](C)O)NC(=O)[C@H](C(C)C)NC(=O)[C@H](CC(C)C)NC(=O)[C@H](CCN)NC(=O)[C@@H](CC(C)C)NC(=O)[C@H](C)N(C)C(=O)[C@H](Cc3cnc[nH]3)NC(=O)[C@H](Cc3ccc(-c4ccccc4)cc3)NC(=O)[C@H](C(C)C)NC(=O)[C@H](Cc3c[nH]c4ccccc34)NC(=O)[C@H](CC(=O)O)NC2=O)c1 [Compound 1423] ({CH2CO}-[Dap][Phe(3-OMe)]DWV[Bip]H[NMeA][dL][Dab]LVTCA-NH2; thioether N-14) | 0.07
6 | CCC(C)[C@@H]1NC(=O)[C@H](Cc2ccc(-c3ccccc3)cc2)NC(=O)[C@H](C(C)C)NC(=O)[C@H](Cc2c[nH]c3ccccc23)NC(=O)[C@H](CC(=O)O)NC(=O)[C@H](Cc2ccc(O)cc2)NC(=O)[C@H](Cc2ccc3ncccc3c2)NC(=O)CSC[C@@H](C(=O)N[C@@H](C)C(N)=O)NC(=O)[C@H](C(C)O)NC(=O)[C@H](C(C)C)NC(=O)[C@H](CC2CCCCC2)NC(=O)[C@H](CCN)NC(=O)[C@@H](CC(C)C)NC(=O)[C@H](C)N(C)C1=O (stereo partly drawn) [Compound 2045] ({CH2CO}-[X27]YDWV[Bip][Ile(3ξ)][NMeA][dL][Dab][Cha]V[Thr(3ξ)]CA-NH2; thioether N-14) | 0.01

Other lines, results leading:

Row | IC50 [µM] | Compound
7 | 0.05 | Cc1cccc(C[C@@H]2NC(=O)[C@H](CC(=O)O)NC(=O)[C@H](Cc3ccc(OCC(=O)O)cc3)NC(=O)[C@H](C(C)O)NC(=O)CSC[C@@H](C(=O)N[C@@H](CO)C(N)=O)NC(=O)[C@H](CO)NC(=O)[C@H](C(C)(C)O)NC(=O)[C@H](CC3CCCCC3)NC(=O)[C@H](CCN)NC(=O)[C@@H](CC(C)C)NC(=O)[C@H](C)N(C)C(=O)[C@H](Cc3ccc(C(=O)O)cc3)NC(=O)[C@H](Cc3ccc(-c4ccccc4)cc3)NC(=O)[C@H](Cc3ccc(C(N)=O)cc3)NC2=O)c1 (stereo partly drawn) [Compound 2181] ({CH2CO}-[Thr(3ξ)]Y(Carboxymethyl)D[Phe(3-Me)][Phe(4-CONH2)][Bip][Phe(4-COOH)][NMeA][dL][Dab][Cha][Val(3-OH)]SCS-NH2; thioether N-14)
8 | 0.02 | CCC(C)[C@@H]1NC(=O)[C@H](Cc2ccc(-c3ccccc3)cc2)NC(=O)[C@H](C(C)C)NC(=O)[C@H](Cc2c[nH]c3ccccc23)NC(=O)[C@H](CC(=O)O)NC(=O)[C@H](Cc2ccc(OCC(=O)O)cc2)NC(=O)[C@H](C(C)O)NC(=O)CSC[C@@H](C(=O)N[C@H](CC(N)=O)C(N)=O)NC(=O)[C@H](CO)NC(=O)[C@H](C(C)C)NC(=O)[C@H](CC2CCCCC2)NC(=O)[C@H](CCN)NC(=O)[C@@H](CC(C)C)NC(=O)[C@H](C)N(C)C1=O (stereo partly drawn) [Compound 2117] ({CH2CO}-[Thr(3ξ)]Y(Carboxymethyl)DWV[Bip][Ile(3ξ)][NMeA][dL][Dab][Cha]VSC[dN]-NH2; thioether N-14)
9 | 0.03 | Cc1cccc(C[C@@H]2NC(=O)[C@H](CC(=O)O)NC(=O)[C@H](Cc3ccc(O)cc3)NC(=O)[C@H](CC(N)=O)NC(=O)CSC[C@@H](C(=O)N[C@@H](CCN)C(N)=O)NC(=O)[C@H](CCC(=O)O)NC(=O)[C@H](C(C)C)NC(=O)[C@H](CC3CCCCC3)NC(=O)[C@H](CCN)NC(=O)[C@@H](CC(C)C)NC(=O)[C@H](C)N(C)C(=O)[C@H](CCCNC(N)=O)NC(=O)[C@H](Cc3ccc(-c4ccccc4)cc3)NC(=O)[C@H](C(C)(C)O)NC2=O)c1 [Compound 1709] ({CH2CO}-NYD[Phe(3-Me)][Val(3-OH)][Bip][Cit][NMeA][dL][Dab][Cha]VEC[Dab]-NH2; thioether N-14)
10 | 0.59 | CC(C)C[C@@H]1NC(=O)[C@H](CCN)NC(=O)[C@@H](CC(C)C)NC(=O)[C@H](C)N(C)C(=O)[C@H](CCCNC(=N)N)NC(=O)[C@H](Cc2ccc(-c3ccccc3)cc2)NC(=O)[C@H](C(C)C)NC(=O)[C@H](Cc2c[nH]c3ccccc23)NC(=O)[C@H](CC(N)=O)NC(=O)[C@H](Cc2ccc(OCC(=O)O)cc2)NC(=O)[C@H](CC(N)=O)NC(=O)CSC[C@@H](C(=O)N[C@@H](C)C(N)=O)NC(=O)[C@H]([C@@H](C)O)NC(=O)[C@H](C(C)C)NC1=O [Compound 1206] ({CH2CO}-NY(Carboxymethyl)NWV[Bip]R[NMeA][dL][Dab]LVTCA-NH2; thioether N-14)
11 | 0.01 | Cc1cccc(C[C@@H]2NC(=O)[C@H](CC(=O)O)NC(=O)[C@H](Cc3ccc(OCC(=O)O)cc3)NC(=O)[C@H](Cc3ccncc3)NC(=O)CSC[C@@H](C(=O)N[C@@H](C)C(N)=O)NC(=O)[C@H]([C@@H](C)O)NC(=O)[C@H](C(C)C)NC(=O)[C@H](CC(C)C)NC(=O)[C@H](CCN)NC(=O)[C@@H](CC(C)C)NC(=O)[C@H](C)N(C)C(=O)[C@H](CCCNC(N)=O)NC(=O)[C@H](Cc3ccc(-c4ccccc4)cc3)NC(=O)[C@H](C(C)C)NC2=O)c1 [Compound 1421] ({CH2CO}-[4Pal]Y(Carboxymethyl)D[Phe(3-Me)]V[Bip][Cit][NMeA][dL][Dab]LVTCA-NH2; thioether N-14)
